Experimental data taken from patent publication US20260091020A1, “TREATMENT OF ACUTE CANNABINOID OVERDOSE” (Anebulo Pharmaceuticals, Inc., priority 2022, published 2026).
Where two headings read alike, the source gives them in different places.

Test: Plasma PK of ANEB-001 and THC, 50 and 100 mg oral Compound 1 with THC (Example 2)
Format: in vivo, human
Conditions: for concentration at 0 h / concentration at 0.33 h / concentration at 0.67 h / concentration at 1 h / concentration at 2 h / concentration at 3 h / concentration at 4 h / concentration at 5 h / concentration at 24 h / AUC(0-t) / Cmax / Tmax: human, in vivo; for Tmax: read-out: THC plasma tmax, Median
Method: A phase 2 clinical study was conducted using the design outlined in FIG. 1. Briefly, 60 adult healthy volunteers ages 18-45 (20 per arm) were selected for a randomized, double blind placebo-controlled study. Volunteers were divided into three groups: (1) THC (Δ9-Tetrahydrocannabinol, 10.5 mg)+placebo; (2) THC (10.5 mg)+Compound 1 (50 mg); and (3) THC (10.5 mg)+Compound 1 (100 mg). […] A followup evaluation was also performed after 14 days. Primary endpoints included inhibition of central nervous system effects of THC using (a) visual analog scale “feeling high”; (b) visual analog scale “alertness”; (c) body sway; (d) heart rate. Secondary endpoints included additional efficacy metrics, safety/tolerability, PK, and PK/PD correlations.
Following the general methods of Example 1, pharmacodynamic properties were measured for Compound 1 (FIGS. 13A-13F).

[1] = 10 mg THC + 50 mg ANEB-001, read-out: THC Concentration in Plasma, Mean
[2] = 10 mg THC + 50 mg ANEB-001, read-out: THC Concentration in Plasma, Median
[3] = 10 mg THC + 100 mg ANEB-001, read-out: THC Concentration in Plasma, Mean
[4] = 10 mg THC + 100 mg ANEB-001, read-out: THC Concentration in Plasma, Median
[5] = 10 mg THC + Placebo, read-out: THC Concentration in Plasma, Mean
[6] = 10 mg THC + Placebo, read-out: THC Concentration in Plasma, Median

With CCCCCc1cc(O)c2c(c1)OC(C)(C)[C@@H]1CCC(C)=C[C@@H]21 [THC, Δ9-tetrahydrocannabinol] the “THC plasma tlag, Median” value (10 mg THC + 50 mg ANEB-001) was 0.00 h, the “THC plasma AUClast, Mean” value (10 mg THC + 100 mg ANEB-001) was 6.128 ng·h/mL and the “THC plasma tlag, Median” value (10 mg THC + 100 mg ANEB-001) was 0.00 h. For the same compound, the “THC plasma AUClast, Mean” value (10 mg THC + Placebo) was 5.722 ng·h/mL, the “THC plasma Cmax, Median” value (10 mg THC + Placebo) was 2.81 ng/mL and the “THC plasma tlag, Median” value (10 mg THC + Placebo) was 0.00 h. For the same compound, the concentration at 0 h [1] was 0 ng/mL, the concentration at 0 h [2] was 0 ng/mL and the concentration at 0.33 h [1] was 1.27 ng/mL. The concentration at 0.33 h [2] was 0.738 ng/mL, the concentration at 0.67 h [1] was 2.9 ng/mL and the concentration at 0.67 h [2] was 2.41 ng/mL. For the same compound, the concentration at 1 h [1] was 2.76 ng/mL, the concentration at 1 h [2] was 2.6 ng/mL and the concentration at 2 h [1] was 1.4 ng/mL. The concentration at 2 h [2] was 1.18 ng/mL, the concentration at 3 h [1] was 0.721 ng/mL and the concentration at 3 h [2] was 0.689 ng/mL. It also gave a concentration at 4 h [1] of 0.432 ng/mL, a concentration at 4 h [2] of 0.379 ng/mL and a concentration at 5 h [1] of 0.287 ng/mL. It also gave a concentration at 5 h [2] of 0.264 ng/mL, a concentration at 24 h [1] of 5.55 pg/mL and a concentration at 24 h [2] of 0 pg/mL. The AUC(0-t) (10 mg THC + 50 mg ANEB-001, read-out: THC plasma AUClast, Geometric Mean) was 5.65 ng·h/mL, the AUC(0-t) (10 mg THC + 50 mg ANEB-001, read-out: THC plasma AUClast, Mean) was 5.98 ng·h/mL and the AUC(0-t) (10 mg THC + 50 mg ANEB-001, read-out: THC plasma AUClast, Median) was 5.51 ng·h/mL. For the same compound, the Cmax (10 mg THC + 50 mg ANEB-001, read-out: THC plasma Cmax, Geometric Mean) was 3.14 ng/mL, the Cmax (10 mg THC + 50 mg ANEB-001, read-out: THC plasma Cmax, Mean) was 3.4 ng/mL and the Cmax (10 mg THC + 50 mg ANEB-001, read-out: THC plasma Cmax, Median) was 3.12 ng/mL. The Tmax (10 mg THC + 50 mg ANEB-001) was 1 h, the concentration at 0 h [3] was 0 ng/mL and the concentration at 0 h [4] was 0 ng/mL. It also gave a concentration at 0.33 h [3] of 1.72 ng/mL, a concentration at 0.33 h [4] of 0.986 ng/mL and a concentration at 0.67 h [3] of 3.54 ng/mL. For the same compound, the concentration at 0.67 h [4] was 2.41 ng/mL, the concentration at 1 h [3] was 2.7 ng/mL and the concentration at 1 h [4] was 1.88 ng/mL. The concentration at 2 h [3] was 1.28 ng/mL, the concentration at 2 h [4] was 1.05 ng/mL and the concentration at 3 h [3] was 0.718 ng/mL. The concentration at 3 h [4] was 0.639 ng/mL, the concentration at 4 h [3] was 0.446 ng/mL and the concentration at 4 h [4] was 0.35 ng/mL. The concentration at 5 h [3] was 0.314 ng/mL, the concentration at 5 h [4] was 0.228 ng/mL and the concentration at 24 h [3] was 6 pg/mL. For the same compound, the concentration at 24 h [4] was 0 pg/mL, the AUC(0-t) (10 mg THC + 100 mg ANEB-001, read-out: THC plasma AUClast, Geometric Mean) was 5.3 ng·h/mL and the AUC(0-t) (10 mg THC + 100 mg ANEB-001, read-out: THC plasma AUClast, Median) was 4.94 ng·h/mL. The Cmax (10 mg THC + 100 mg ANEB-001, read-out: THC plasma Cmax, Geometric Mean) was 3.08 ng/mL, the Cmax (10 mg THC + 100 mg ANEB-001, read-out: THC plasma Cmax, Mean) was 3.77 ng/mL and the Cmax (10 mg THC + 100 mg ANEB-001, read-out: THC plasma Cmax, Median) was 2.46 ng/mL. The Tmax (10 mg THC + 100 mg ANEB-001) was 0.67 h, the concentration at 0 h [5] was 0 ng/mL and the concentration at 0 h [6] was 0 ng/mL. The concentration at 0.33 h [5] was 1.17 ng/mL, the concentration at 0.33 h [6] was 0.776 ng/mL and the concentration at 0.67 h [5] was 2.29 ng/mL. It also gave a concentration at 0.67 h [6] of 1.81 ng/mL, a concentration at 1 h [5] of 2.49 ng/mL and a concentration at 1 h [6] of 2.27 ng/mL. For the same compound, the concentration at 2 h [5] was 1.44 ng/mL, the concentration at 2 h [6] was 1.6 ng/mL and the concentration at 3 h [5] was 1.01 ng/mL. For the same compound, the concentration at 3 h [6] was 0.838 ng/mL, the concentration at 4 h [5] was 0.455 ng/mL and the concentration at 4 h [6] was 0.443 ng/mL. The concentration at 5 h [5] was 0.285 ng/mL, the concentration at 5 h [6] was 0.248 ng/mL and the concentration at 24 h [5] was 0 pg/mL. The concentration at 24 h [6] was 0 pg/mL, the AUC(0-t) (10 mg THC + Placebo, read-out: THC plasma AUClast, Geometric Mean) was 5.16 ng·h/mL and the AUC(0-t) (10 mg THC + Placebo, read-out: THC plasma AUClast, Median) was 4.96 ng·h/mL. The Cmax (10 mg THC + Placebo, read-out: THC plasma Cmax, Geometric Mean) was 2.76 ng/mL, the Cmax (10 mg THC + Placebo, read-out: THC plasma Cmax, Mean) was 3.15 ng/mL and the Tmax (10 mg THC + Placebo) was 1 h.
